How the values were obtained:
[1] = test system: HUVEC proliferation in the presence of VEGF; test: HUVEC 2D growth assay, cell proliferation by VEGF stimulation; format: cell-based; conditions: Homo sapiens, 72 h, VEGF 20 ng/mL, 3 days, CellTiter-Glo
Method: (§1) 1. Measurement of Inhibiting Effect on Cell Proliferation by Vascular Endothelial Growth Factor (VEGF) or Basic Fibroblast Growth Factor (bFGF) Stimulation
(§2) The inhibiting effect of compound (I) on cell proliferation by VEGF or bFGF stimulation was evaluated by the following procedure based on HUVEC 2D growth assay.
(§3) Normal human umbilical vein endothelial cells (HUVEC) were isolated by a previously reported method (Shinseikagaku Jikken Koza, “Cell Culture Technology”, p.197-202). The cells were cultured overnight in a collagen I-coated flask (IWAKI 4143-010), with EGM-2 culture medium (Lonza Inc CC-3162) containing 10% Fetal Bovine Serum (FBS: Sigma 172012) in a 5% CO2 incubator (37° C.). On the following day, the culture supernatant was discarded and the medium was exchanged with EBM-2 culture medium containing 2% FBS, prior to further culturing overnight. On the following day, 2% FBS, and a HUVEC cell suspension prepared to 1.5×10^4 cells/mL with Human Endothelial Serum Free Medium (SFM: Gibco 11111-044) containing penicillin/streptomycin (FujiFilm-Wako Pure Chemical Industries) (hereunder referred to as “2% FBS-SFM”) were each added at 100 μL to each well of a 96-well plate (Corning 3904), and culturing was carried out overnight in a 5% CO2 incubator (37° C.). […]

[2] = test system: HUVEC proliferation in the presence of bFGF; test: HUVEC 2D growth assay, cell proliferation by bFGF stimulation; format: cell-based; conditions: Homo sapiens, 72 h, bFGF 20 ng/mL, 3 days, CellTiter-Glo
Method: as §1, §2, §3

[3] = Measurement of blood drug concentration (2), change over time; format: in vivo; conditions: mice, i.v. 2 mg/kg, 15 minutes, 4 hours and 24 hours after administration
Method: The blood was centrifuged for 10 minutes at about 1200 g, and the plasma was collected. The drug concentration of the harvested plasma was assayed using LC-MS/MS.
The liposome compositions of Examples 2, 5 and 8, and an aqueous solution of methanesulfonic acid salt of compound (I), were administered to mice by the same method as “4. Measurement of blood drug concentration (1)”, collecting blood at 15 minutes, 4 hours and 24 hours after administration, and measuring the change in blood drug concentration.

Change in blood drug concentration (FIG. 1), in words [3]	Structure (SMILES)	IC50 [1]	IC50 [2]
–	CCNC(=O)Nc1ccc(Oc2ccnc3cc(OC)c(C(N)=O)cc23)cc1Cl [compound (I), 4-(3-chloro-4-(ethylaminocarbonyl)aminophenoxy)-7-methoxy-6-quinolinecarboxamide]	1.75 nM	343 nM
significantly lower after 24 hours	CCNC(=O)Nc1ccc(Oc2ccnc3cc(OC)c(C(N)=O)cc23)cc1Cl.CS(=O)(=O)O [4-(3-Chloro-4-(ethylaminocarbonyl)aminophenoxy)-7-methoxy-6-quinolinecarboxamide methanesulfonate]	–	–

Reference: patent US20250177302A1, “LIPOSOME COMPOSITION AND LIPOSOME-CONTAINING PHARMACEUTICAL COMPOSITION” (Eisai R&D Management Co., Ltd., priority 2022, published 2025)
